From patent publication US11926621B1, “N′-(2-(5-(4-chlorophenyl)-1,3,4-oxadiazol-2-ylthio)acetoxy)benzo[d][1,3]dioxole-5-carboximidamide as an antimicrobial compound” (KING FAISAL UNIVERSITY, priority 2023, dated 2024)

Experiments:
Format in all cases: cell-based
[1] = tested on: Bacillus cereus; assay: Agar plate disc-diffusion, antibacterial inhibition zone; settings: nutrient agar, 37° C., 48 h
Protocol: The agar plate disc-diffusion method was applied. […] The discs were then placed onto the surface of agar plates (nutrient agar for bacteria and Sabouraud's dextrose agar for fungi) seeded with the test organism. Each plate contained 15 mL of the agar medium, previously seeded with 0.2 mL of the broth culture of each organism pregrown for 18 hours. The plates were incubated at 37° C. for 48 h, and 72 h for fungi. The inhibition zones were measured in mm. Discs impregnated with DMSO were used as a control, and its inhibition zone was subtracted from the tested compound actual inhibition zone.
(§1) The results of the antimicrobial testing can be observed in Tables 1 and 2, below, using ciprofloxacin as a reference.

[2] = tested on: Aspergillus flavus; assay: Agar plate disc-diffusion, antifungal inhibition zone; settings: Sabouraud's dextrose agar, 72 h
Protocol: (§2) The agar plate disc-diffusion method was applied. Sterilized filter papers (6 mm in diameter) were wetted with 10 μL of a solution of N′-(2-(5-(4-chlorophenyl)-1,3,4-oxadiazol-2-ylthio)acetoxy)benzo[d][1,3]dioxole-5-carboximidamide (3) to be tested, containing 10 mg/mL in DMSO, and the discs were allowed to air dry. The discs were then placed onto the surface of agar plates (nutrient agar for bacteria and Sabouraud's dextrose agar for fungi) seeded with the test organism. Each plate contained 15 mL of the agar medium, previously seeded with 0.2 mL of the broth culture of each organism pregrown for 18 hours. The plates were incubated at 37° C. for 48 h, and 72 h for fungi. The inhibition zones were measured in mm. Discs impregnated with DMSO were used as a control, and its inhibition zone was subtracted from the tested compound actual inhibition zone.
as §1

[3] = tested on: Escherichia coli; assay: Agar plate disc-diffusion, antibacterial inhibition zone; settings: nutrient agar, 37° C., 48 h
Protocol: as §2, with “[…],” for “containing 10 mg/mL in DMSO,”
as §1

[4] = tested on: Pseudomonas aeruginosa; assay: as above; settings: nutrient agar, 37° C., 48 h
Protocol: as §2, with “[…],” for “containing 10 mg/mL in DMSO,”
as §1

[5] = tested on: Staphylococcus aureus; assay: as above; settings: nutrient agar, 37° C., 48 h
Protocol: as §2, with “[…],” for “containing 10 mg/mL in DMSO,”
as §1

[6] = tested on: Chrysosporium keratinophilum; assay: Agar plate disc-diffusion, antifungal inhibition zone; settings: Sabouraud's dextrose agar, 72 h
Protocol: as §2, with “[…],” for “containing 10 mg/mL in DMSO,”
as §1

[7] = A = concentration of comp. = 10,000 μL
[8] = B = concentration of comp. = 30.000 μL
[9] = C = concentration of comp. = 50,000 μL

Question: What does the source list for `N/C(=N\OC(=O)CSc1nnc(-c2ccc(Cl)cc2)o1)c1ccc2c(c1)OCO2` [Compound 3, N′-(2-(5-(4-chlorophenyl)-1,3,4-oxadiazol-2-ylthio)acetoxy)benzo[d][1,3]dioxole-5-carboximidamide]?
Answer: inhibition zone, Bacillus Cereus, A [1, 7]: 23 mm; inhibition zone, Bacillus Cereus, B [1, 8]: 28 mm; inhibition zone, Bacillus Cereus, C [1, 9]: 37 mm; inhibition zone, Aspergillus flavus, A [2, 7]: 25 mm; inhibition zone, Aspergillus flavus, B [2, 8]: 28 mm; inhibition zone, Aspergillus flavus, C [2, 9]: 38 mm; inhibition zone, Escherichia coli, A [3, 7]: 25 mm; inhibition zone, Escherichia coli, B [3, 8]: 30 mm; inhibition zone, Escherichia coli, C [3, 9]: 43 mm; inhibition zone, Pseudomonas aeruginosa, A [4, 7]: 22 mm; inhibition zone, Pseudomonas aeruginosa, B [4, 8]: 25 mm; inhibition zone, Pseudomonas aeruginosa, C [4, 9]: 32 mm; inhibition zone, Staphylococcus aureus, A [5, 7]: 25 mm; inhibition zone, Staphylococcus aureus, B [5, 8]: 31 mm; inhibition zone, Staphylococcus aureus, C [5, 9]: 40 mm; inhibition zone, Chrysosporium keratinophilum, A [6, 7]: 24 mm; inhibition zone, Chrysosporium keratinophilum, B [6, 8]: 29 mm; inhibition zone, Chrysosporium keratinophilum, C [6, 9]: 45 mm
